Data published in patent US9796733B2, “Imidazo-pyrazine derivatives useful as soluble guanylate cyclase activators” (Merck Sharp & Dohme Corp., priority 2014, dated 2017).

Legend:
sGC α1/β1 heterodimer = target: T1, sGC α1/β1 heterodimer (Homo sapiens, UniProt Q02108+Q02153); test: Cell-based sGC functional assay (CASA assay): cGMP generation in CHO-K1/sGC cells, HTRF detection; conditions: for Emax: CHO-K1, percent activation relative to standard Compound A in CHO-K1/sGC cells, read-out: % Act.; for EC50: inflection point (IP) of cGMP generation in CHO-K1/sGC cells, 4P fit, activity expressed as percentage of Compound A
T1 construct: expressed in transfected cells; host or cells: CHO-K1 (clone #7, CHO-K1/sGC)
T1 sequence (Q02108 1-690): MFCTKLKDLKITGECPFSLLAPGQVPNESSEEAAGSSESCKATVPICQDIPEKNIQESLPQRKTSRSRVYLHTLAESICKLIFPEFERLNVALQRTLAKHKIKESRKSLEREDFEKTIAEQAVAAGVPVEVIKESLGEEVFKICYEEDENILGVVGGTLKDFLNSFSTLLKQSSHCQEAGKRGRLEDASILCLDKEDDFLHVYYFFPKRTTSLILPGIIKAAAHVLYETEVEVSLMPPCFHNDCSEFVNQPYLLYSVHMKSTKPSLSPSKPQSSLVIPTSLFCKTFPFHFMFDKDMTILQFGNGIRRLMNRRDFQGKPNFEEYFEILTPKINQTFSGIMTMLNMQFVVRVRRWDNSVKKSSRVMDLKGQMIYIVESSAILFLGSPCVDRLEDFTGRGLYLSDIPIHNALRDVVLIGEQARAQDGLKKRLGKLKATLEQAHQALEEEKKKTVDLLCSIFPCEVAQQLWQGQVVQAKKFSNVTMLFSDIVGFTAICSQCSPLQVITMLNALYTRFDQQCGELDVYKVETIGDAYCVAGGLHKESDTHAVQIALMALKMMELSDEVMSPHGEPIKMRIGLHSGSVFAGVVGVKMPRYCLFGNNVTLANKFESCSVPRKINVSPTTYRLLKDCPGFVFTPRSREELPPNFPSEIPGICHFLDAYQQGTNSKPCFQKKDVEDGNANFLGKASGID
T1 sequence (Q02153 1-619): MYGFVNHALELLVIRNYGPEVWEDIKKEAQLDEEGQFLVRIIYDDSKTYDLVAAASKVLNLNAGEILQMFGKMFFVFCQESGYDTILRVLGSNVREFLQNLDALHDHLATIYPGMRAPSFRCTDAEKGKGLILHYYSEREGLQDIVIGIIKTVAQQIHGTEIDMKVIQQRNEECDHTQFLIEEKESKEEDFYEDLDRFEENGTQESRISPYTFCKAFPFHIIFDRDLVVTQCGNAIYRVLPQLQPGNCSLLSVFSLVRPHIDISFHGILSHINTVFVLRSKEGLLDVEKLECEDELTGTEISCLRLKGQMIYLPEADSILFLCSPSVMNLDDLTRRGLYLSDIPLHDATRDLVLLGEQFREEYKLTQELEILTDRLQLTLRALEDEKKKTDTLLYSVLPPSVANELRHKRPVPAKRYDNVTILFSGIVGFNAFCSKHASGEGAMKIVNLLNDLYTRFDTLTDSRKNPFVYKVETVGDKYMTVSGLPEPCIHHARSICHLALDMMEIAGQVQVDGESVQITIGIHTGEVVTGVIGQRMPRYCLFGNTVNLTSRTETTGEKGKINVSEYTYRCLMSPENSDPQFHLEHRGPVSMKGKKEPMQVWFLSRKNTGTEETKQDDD
How it was run: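 Stable CHO-K1/sGC cells in EBSS buffer with 5 mM MgCl2, 0.05% BSA and 0.5 mM IBMX were incubated with compound (2.5% DMSO final) ±1 μM DETA-NO for 1 hr at 37° C. cGMP was measured by HTRF. Activation is expressed as % of reference HDA Compound A maximum, with IP and max fold induction from a 4P fit.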

[1] = tested on: Spontaneously hypertensive rats (SHR); test: Acute efficacy in spontaneously hypertensive rats (SHR): telemetry blood pressure lowering after a single oral dose; assay type: in vivo, rat
How it was run: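 Male SHR carrying aortic telemetry implants (14-day recovery) received a single oral gavage of compound or vehicle (10% transcutol/20% Cremophor/70% water). Conscious blood pressure was sampled 30 s every 10 min and averaged hourly; change was taken against the prior-day vehicle baseline, reported as maximum peak SBP decrease at a given PO dose (mpk).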

| Emax (sGC α1/β1 heterodimer) | EC50 (sGC α1/β1 heterodimer) | SMILES | Maximum peak decrease of systolic blood pressure (SBP) in SHR, Cat. ([1]; P.O. 1.0 mpk) | Maximum peak decrease of systolic blood pressure (SBP) in SHR, Cat. ([1]; P.O. 0.3 mpk) | Maximum peak decrease of systolic blood pressure (SBP) in SHR, Cat. ([1]; P.O. 3.0 mpk) | Maximum peak decrease of systolic blood pressure (SBP) in SHR, Cat. ([1]; P.O. 2.0 mpk) |
| --- | --- | --- | --- | --- | --- | --- |
| 129% | 77 nM | CC1(c2ccc(Cl)cc2F)C(=O)Nc2nc(-c3cn4ccnc4cn3)nc(N)c21 (stereo not drawn) [Example 136A, 4-amino-5-(4-chloro-2-fluorophenyl)-2-(imidazo[1,2-a]pyrazin-6-yl)-5-methyl-5H-pyrrolo[2,3-d]pyrimidin-6(7H)-one] | B (Category B=SBP in SHRs 20-40 mmHg) | – | – | – |
| 113% | 61 nM | CC1(c2ccc(F)c(F)c2)C(=O)Nc2nc(-c3cn4ccnc4c(CCC(F)(F)F)n3)nc(N)c21 (stereo not drawn) [Example 183B, 4-amino-5-(3,4-difluorophenyl)-5-methyl-2-(8-(3,3,3-trifluoropropyl)imidazo[1,2-a]pyrazin-6-yl)-5H-pyrrolo[2,3-d]pyrimidin-6(7H)-one] | B (Category B=SBP in SHRs 20-40 mmHg) | – | – | – |
| 94% | 57 nM | CC1(c2ccc(F)cc2)C(=O)Nc2nc(-c3cn4ccnc4c(CC4CCC4)n3)nc(N)c21 (stereo not drawn) [Example 114A, 4-amino-2-(8-(cyclobutylmethyl)imidazo [1,2-a]pyrazin-6-yl)-5-(4-fluorophenyl)-5-methyl-5H-pyrrolo[2,3-d]pyrimidin-6(7H)-one] | – | C (Category C=SBP in SHRs>40 mmHg) | – | – |
| 157% | 1310 nM | Nc1nc(-c2cn3ccnc3c(CCC(F)(F)F)n2)nc2c1C(c1ccc(Cl)cn1)(C1CC1)C(=O)N2 (single isomer, unassigned) [Example 331B, 4-amino-5-(5-chloropyridin-2-yl)-5-cyclopropyl-2-(8-(3,3,3-trifluoropropyl)imidazo[1,2-a]pyrazin-6-yl)-5H-pyrrolo[2,3-d]pyrimidin-6(7H)-one] | – | – | B (Category B=SBP in SHRs 20-40 mmHg) | – |
| 111% | 49 nM | CCC1(c2ccc(Cl)cc2)C(=O)Nc2nc(-c3cn4ccnc4c(CCCC(F)(F)F)n3)nc(N)c21 (stereo not drawn) [Example 209B, 4-amino-5-(4-chlorophenyl)-5-ethyl-2-(8-(4,4,4-trifluorobutyl)imidazo[1,2-a]pyrazin-6-yl)-5H-pyrrolo[2,3-d]pyrimidin-6(7H)-one] | – | B (Category B=SBP in SHRs 20-40 mmHg) | – | – |
| 81% | 84 nM | CC1(c2noc(C3CC3)n2)C(=O)Nc2nc(-c3cn4ccnc4c(CCC(F)(F)C(F)(F)F)n3)nc(N)c21 (single isomer, unassigned) [Example 333B, 4-amino-5-(5-cyclopropyl-1,2,4-oxadiazol-3-yl)-5-methyl-2-(8-(3,3,4,4,4-pentafluorobutyl)imidazo[1,2-a]pyrazin-6-yl)-5H-pyrrolo[2,3-d]pyrimidin-6(7H)-one] | – | – | – | B (Category B=SBP in SHRs 20-40 mmHg) |
| 102% | 201 nM | CCC1(C2CC2)C(=O)Nc2nc(-c3cn4ccnc4c(CCC(F)(F)C(F)(F)F)n3)nc(N)c21 (stereo not drawn) [Example 86B, 4-amino-5-cyclopropyl-5-ethyl-2-(8-(3,3,4,4,4-pentafluorobutyl)imidazo [1,2-a]pyrazin-6-yl)-5H-pyrrolo[2,3-d]pyrimidin-6(7H)-one] | – | – | A (Category A=SBP in SHRs<20 mmHg) | – |
| 106% | 1040 nM | Nc1nc(-c2cn3ccnc3c(CCC(F)(F)F)n2)nc2c1C(c1ccc(OC(F)(F)F)cc1)(C1CC1)C(=O)N2 (stereo not drawn) [Example 328A, 4-amino-5-cyclopropyl-5-(4-(trifluoromethoxy)phenyl)-2-(8-(3,3,3-trifluoropropyl)imidazo[1,2-a]pyrazin-6-yl)-5H-pyrrolo[2,3-d]pyrimidin-6(7H)-one] | – | – | A (Category A=SBP in SHRs<20 mmHg) | – |
| 142% | 32 nM | CC1(c2ccc(F)cc2)C(=O)Nc2nc(-c3cn4c(Cl)cnc4c(CCC(F)(F)C(F)(F)F)n3)nc(N)c21 (stereo not drawn) [Example 255A, 4-amino-2-(3-chloro-8-(3,3,4,4,4-pentafluorobutyl)imidazo [1,2-a]pyrazin-6-yl)-5-(4-fluorophenyl)-5-methyl-5H-pyrrolo[2,3-d]pyrimidin-6(7H)-one] | C (Category C=SBP in SHRs>40 mmHg) | – | – | – |
| 124% | 637 nM | Cc1cn2cc(-c3nc(N)c4c(n3)NC(=O)C4(C)c3ccc(F)cn3)nc(CCC(F)(F)C(F)(F)F)c2n1 (stereo not drawn) [Example 172A, 4-amino-5-(5-fluoropyridin-2-yl)-5-methyl-2-(2-methyl-8-(3,3,4,4,4-pentafluorobutyl)imidazo [1,2-a]pyrazin-6-yl)-5H-pyrrolo[2,3-d]pyrimidin-6(7H)-one] | – | – | B (Category B=SBP in SHRs 20-40 mmHg) | – |
| 132% | 235 nM | Cc1ccc(C2(C)C(=O)Nc3nc(-c4cn5ccnc5c(CCC(F)(F)F)n4)nc(N)c32)cc1 (stereo not drawn) [Example 185A, 4-amino-5-methyl-5-(p-tolyl)-2-(8-(3,3,3-trifluoropropyl)imidazo[1,2-a]pyrazin-6-yl)-5H-pyrrolo[2,3-d]pyrimidin-6(7H)-one] | – | – | C (Category C=SBP in SHRs>40 mmHg) | – |
| 177% | 695 nM | Cc1cnc(C2(C3CC3)C(=O)Nc3nc(-c4cn5ccnc5c(CCC(F)(F)C(F)(F)F)n4)nc(N)c32)cn1 (single isomer, unassigned) [Example 342B, 4-amino-5-cyclopropyl-5-(5-methylpyrazin-2-yl)-2-(8-(3,3,4,4,4-pentafluorobutyl)imidazo[1,2-a]pyrazin-6-yl)-5H-pyrrolo[2,3-d]pyrimidin-6(7H)-one] | A (Category A=SBP in SHRs<20 mmHg) | – | – | – |
| 90% | 227 nM | CC1(c2ccc(F)cc2)C(=O)Nc2nc(-c3cn4cc(C5CC5)nc4c(CCC(F)(F)C(F)(F)F)n3)nc(N)c21 (stereo not drawn) [Example 157A, 4-amino-2-(2-cyclopropyl-8-(3,3,4,4,4-pentafluorobutyl)imidazo [1,2-a]pyrazin-6-yl)-5-(4-fluorophenyl)-5-methyl-5H-pyrrolo[2,3-d]pyrimidin-6(7H)-one] | – | – | B (Category B=SBP in SHRs 20-40 mmHg) | – |
| 95% | 424 nM | Nc1nc(-c2cn3ccnc3c(CCC(F)(F)C(F)(F)F)n2)nc2c1C(C(=O)NC1CC1)(C1CC1)C(=O)N2 (single isomer, unassigned) [Example 61A, 4-amino-N,5-dicyclopropyl-6-oxo-2-(8-(3,3,4,4,4-pentafluorobutyl)imidazo[1,2-a]pyrazin-6-yl)-6,7-dihydro-5H-pyrrolo[2,3-d]pyrimidine-5-carboxamide] | – | – | B (Category B=SBP in SHRs 20-40 mmHg) | – |
| 108% | 231 nM | CC(C)Cc1nc(-c2nc(N)c3c(n2)NC(=O)C3(C)c2ccc(Cl)cc2)cn2ccnc12 (stereo not drawn) [Example 20A, 4-amino-5-(4-chlorophenyl)-2-(8-isobutylimidazo[1,2-a]pyrazin-6-yl)-5-methyl-5H-pyrrolo[2,3-d]pyrimidin-6(7H)-one] | C (Category C=SBP in SHRs>40 mmHg) | – | – | – |
